Data set [1] is described as follows: Rat body weight during oral gavage.
Experimental: (§1) A hyperlipidemic animal model was established as follows: Forty healthy adult male Sprague-Dawley (SD) rats, weighing 200±20 g, were used. A blank control group of 10 rats was fed a standard diet. The remaining 30 rats constituted the modeling group and were fed a high-fat diet (commercially available, 60% fat content).
(§2) The blank control group and the model control group were administered an equal volume of 0.9% physiological saline by oral gavage. The other two groups were administered aqueous solutions of the test samples by oral gavage.
(§3) During the gavage period, the blank control group was fed a standard diet daily, while the other groups continued receiving the high-fat diet. All rats had free access to water. Oral gavage was performed once daily for 4 consecutive weeks, and body weights were measured regularly.
For data set [2], the system named is hyperlipidemic rats. Put plainly: Serum lipid levels in hyperlipidemic rat model after oral gavage. It counts as in vivo, Sprague-Dawley (SD) rats. To be noted: after 4 weeks of oral gavage, high-fat diet rats. The procedure:
After 1-2 weeks of feeding the high-fat diet to the modeling group, blood was collected from the blank control group and the modeling group without fasting (from the inner canthus or tail). Serum was separated as soon as possible after blood collection, and serum levels of Total Cholesterol (TC), Triglycerides (TG), Low-Density Lipoprotein Cholesterol (LDL-C), and High-Density Lipoprotein Cholesterol (HDL-C) were measured. The modeling group was randomly divided into 3 groups (model control group, cholesterol-lowering peptide group, lovastatin control group). No significant differences in TC, TG, LDL-C, and HDL-C were observed among these groups.
All rats had free access to water.

The conditions of data set [3]: rat, in vivo, po.
Experimental: as §1, §2, §3

Where two headings read alike, the source gives them in different places. Marks after values point to notes of the source that are not given here. Ends that are not written are not given here.

On to `CC[C@H](C)C(=O)O[C@H]1C[C@@H](C)C=C2C=C[C@H](C)[C@H](CC[C@@H]3C[C@@H](O)CC(=O)O3)[C@H]21` [Lovastatin], for which, in data set [1] (Day 14 and Day 28 of administration, compared among groups), the “effect on rat body weight” value is given as “no significant effect”. Further, the “Body Weight (g) At Day 0 of Administration” value in data set [1] (high-fat diet rats, oral gavage once daily, Day 0) came to 200.78 g. In addition, the “Body Weight (g) At Day 14 of Administration” value in data set [1] (high-fat diet rats, oral gavage once daily, Day 14) was 221.16 g. The “Body Weight (g) At Day 28 of Administration” value in data set [1] (high-fat diet rats, oral gavage once daily, Day 28) amounted to 236.39 g. In addition, in data set [2], the “High-Density Lipoprotein Cholesterol (HDL-C)” value is given as 0.54**, the “Low-Density Lipoprotein Cholesterol (LDL-C)” value is listed as 0.32**, the “Total Cholesterol (TC)” value is on record as 3.06** and the “Triglycerides (TG)” value is reported as 0.98**.

For the molecule FFFPF [FFFPF], in data set [3], the “Body Weight (g) At Day 0 of Administration” value is 200.89 g, the “Body Weight (g) At Day 14 of Administration” value came out at 220.75 g and the “Body Weight (g) At Day 28 of Administration” value is 237.35 g.
